Experimental findings from publication PMC10648349, “Aromatic Diboronic Acids as Effective KPC/AmpC Inhibitors” (Molecules, 2023) are described below.

The structures appear in SMILES notation.

One assay relates to KPC producers. Put plainly: microdilution with carbapenems. It counts as cell-based. As to conditions: strains used in this study. The method, then: (§1) To examine the ability of tested agents to inhibit various carbapenemases and AmpC-enzymes, their synergy with antibiotics against β-lactamase-producing strains was assessed by checkerboard microdilution assay, with slight modification. Checkerboards were prepared in microtiter plates, with seven two-fold dilutions of β-lactams (1–64 mg/L) in the rows and three two-fold dilutions of tested agents and PBA (4–16 mg/L) in the columns. Tested agents’ concentrations were limited to the concentrations at which the newest commercially available BLIs (vaborbactam, relebactam, and avibactam) are used in susceptibility testing. Plates were inoculated and incubated as in the MIC microdilution assay. Parallel, MICs of tested agents and PBA alone were determined by the microdilution assay. Following the incubation, antibiotic MICs in the presence of each agent’s concentration were determined. Moreover, for the first well without growth found in each checkerboard row and column along the growth/non-growth interface, the fractional inhibitory concentration index (FICI) was calculated using the formula below:FICI = [(MIC of antibiotic in combination)/(MIC of antibiotic alone)] + [(MIC of the tested agent in combination)/(MIC of tested agent alone)].
(§2) For calculations, all off-scale MICs were converted to the next-highest doubling concentration. Subsequently, both the average and the lowest FICI were interpreted. The interpretation was as follows: FICI ≤ 0.5, synergy; 0.5 < FICI ≤ 4, indifference and FICI > 4, antagonism. Primarily, examined combinations consisted of meropenem (Pol-Aura, Morag, Poland) plus tested agents against carbapenemases-producing strains and ceftazidime (Pol-Aura, Morag, Poland) plus tested agents against AmpC-producing strains. For agents that reduced meropenem MIC at least 4-fold for at least two tested strains, similar assays were performed with imipenem (Pol-Aura, Morag, Poland) and ertapenem (Pol-Aura, Morag, Poland).
In general terms: In broth dilution the organism is exposed to a series of concentrations in liquid medium.

For assay [1], the system named is K. pneumoniae ATCC BAA-1705 KPC-2-positive. In words: checkerboard microdilution, antibiotic plus tested agent. Format: cell-based, Klebsiella pneumoniae. As to conditions: Klebsiella pneumoniae, ATCCBAA1705; read-out: MIC of ertapenem alone. The procedure:
as §1, §2

Assay [2] deals with K. pneumoniae 83 KPC-3-positive, CTX-M-3-positive. The description is as above. It counts as cell-based, Klebsiella pneumoniae. As to conditions: Klebsiella pneumoniae; read-out: MIC of ertapenem alone. The method, then:
as §1, §2

Assay [3] concerns K. pneumoniae 81 KPC-3-positive. Described as above. It counts as cell-based, Klebsiella pneumoniae. As to conditions: Klebsiella pneumoniae; read-out: MIC of ertapenem alone. The procedure:
as §1, §2

Assay [4] has as its system E. coli 76 KPC-2-positive. The description is as above. Format: cell-based, Escherichia coli. As to conditions: Escherichia coli; read-out: MIC of ertapenem alone. The procedure:
as §1, §2

By MIC is commonly meant the lowest concentration that inhibits growth of the organism. As for `C[C@@H](O)[C@H]1C(=O)N2C(C(=O)O)=C(S[C@@H]3CN[C@H](C(=O)Nc4cccc(C(=O)O)c4)C3)[C@H](C)[C@H]12` [ERT, ertapenem, reference compound], the “MIC range of ertapenem alone” value in the assay with KPC producers lay within 32 to 256 µg/mL. Also, the MIC in assay [1] is 64 µg/mL; in assay [2], 64 µg/mL; in assay [3], 32 µg/mL; in assay [4], 256 µg/mL.
